# Reference: patent US9226500B2, “Pesticidal compositions and processes related thereto” (Dow AgroSciences LLC, priority 2012, dated 2016)
# Tested on: Beet Armyworm (Spodoptera exigua)
# Test: Bioassay on Beet Armyworm (BAW), 128-well diet tray assay
# Format: in vivo
# Conditions: Table 3, Assays Results Part 1
# Protocol: Certain molecules disclosed in this document were tested against BAW, CEW and CL using procedures described in the following examples. In the reporting of the results, the “BAW & CEW & CL Rating Table” was used (See Table Section).
# Bioassays on BAW (Spodoptera exigua)
# Bioassays on BAW were conducted using a 128-well diet tray assay. One to five second instar BAW larvae were placed in each well (3 mL) of the diet tray that had been previously filled with 1 mL of artificial diet to which 50 μg/cm^2 of the test compound (dissolved in 50 μL of 90:10 acetone-water mixture) had been applied (to each of eight wells) and then allowed to dry. Trays were covered with a clear self-adhesive cover, and held at 25° C., 14:10 light-dark for five to seven days. Percent mortality was recorded for the larvae in each well; activity in the eight wells was then averaged. The results are indicated in the tables entitled “Table 3: Assay Results Part 1” and “Table 4: Assay Results Part 2” (See Table Section).
row,SMILES,BAW Rating
1,Cc1cc(/C=C/C(c2cc(Cl)cc(Cl)c2)C(F)(F)F)ccc1C(=O)NCC(=O)NC1CSC1 (centres unmarked) [AC41],A (50-100)
2,O=C(CNC(=O)c1ccc(/C=C/C(c2cc(Cl)c(Cl)c(Cl)c2)C(F)(F)F)cc1Br)NCC(F)(F)F (centres unmarked) [AC66],A (50-100)
3,Cc1cc(/C=C/C(c2cc(Cl)cc(Cl)c2)C(F)(F)F)ccc1C(=O)Nc1ccc(Cl)nc1 (centres unmarked) [AC59],A (50-100)
4,O=C(CNC(=O)c1ccc(/C=C/C(c2ccc(F)c(Cl)c2)C(F)(F)F)cc1Br)NCC(F)(F)F (centres unmarked) [AC99],A (50-100)
5,Cc1cc(/C=C/C(c2cc(Cl)c(Cl)c(Cl)c2)C(F)(F)F)ccc1C(=O)NC(C)(C)c1ccccn1 (centres unmarked) [AC27],A (50-100)
6,FC(F)(F)c1cc(/C=C/C(c2cc(Cl)cc(Cl)c2)C(F)(F)F)ccc1-n1cncn1 (centres unmarked) [DC51],A (50-100)
7,N#Cc1cc(/C=C/C(c2cc(Cl)cc(Cl)c2)C(F)(F)F)ccc1-n1cnc([N+](=O)[O-])n1 (centres unmarked) [DC37],A (50-100)
8,O=C(NC1CS(=O)(=O)C1)c1ccc(/C=C/C(c2cc(Cl)c(Cl)c(Cl)c2)C(F)(F)F)cc1C(F)(F)F (centres unmarked) [AC35],A (50-100)
9,Cc1cc(/C=C/C(c2cc(Cl)c(F)c(Cl)c2)C(F)(F)F)ccc1C(=O)NCc1cc(Cl)ccn1 (centres unmarked) [AC77],A (50-100)
10,O=C(NC1C[S+]([O-])C1)c1ccc(/C=C/C(c2cc(Cl)c(F)c(Cl)c2)C(F)(F)F)cc1F (centres unmarked) [AC87],A (50-100)
11,Cc1cc(/C=C/C(c2cc(Cl)cc(Cl)c2)C(F)(F)F)ccc1C(=O)NCc1ccoc1 (centres unmarked) [AC20],A (50-100)
12,COc1cc(/C=C/C(c2cc(Cl)c(F)c(Cl)c2)C(F)(F)F)ccc1C(=O)NC1CS(=O)(=O)C1 (centres unmarked) [AC85],A (50-100)
13,"O=C(NOc1ccc(/C=C/C(c2cc(Cl)c(Cl)c(Cl)c2)C(F)(F)F)cc1)C1CC1 (centres unmarked) [CC52, (E)-N-(4-(4,4,4-Trifluoro-3-(3,4,5-trichlorophenyl)but-1-en-1-yl)phenoxy)cyclopropanecarboxamide]",A (50-100)
14,Cc1cc(/C=C/C(c2cc(Cl)c(F)c(Cl)c2)C(F)(F)F)ccc1C(=O)NCc1ccnc(Cl)c1 (centres unmarked) [AC54],A (50-100)
15,O=C(NCc1ccc(/C=C/C(c2cc(Cl)cc(Cl)c2)C(F)(F)F)cc1)C1CC1 (centres unmarked) [CC2],A (50-100)
16,COc1c(Cl)cc(C(/C=C/c2ccc(-n3cncn3)cc2)C(F)(F)F)cc1Cl (centres unmarked) [DC20],A (50-100)
17,Cc1cc(/C=C/C(c2cc(Cl)c(F)c(Cl)c2)C(F)(F)F)ccc1C(=O)NCc1ccc(Cl)nc1 (centres unmarked) [AC38],A (50-100)
18,Fc1cc(/C=C/C(c2cc(Cl)cc(Cl)c2)C(F)(F)F)ccc1-n1cncn1 (centres unmarked) [DC48],A (50-100)
19,O=C(CNC(=O)c1ccc(/C=C/C(c2cc(Cl)c(F)c(Cl)c2)C(F)(F)F)cc1[N+](=O)[O-])NCC(F)(F)F (centres unmarked) [AC98],A (50-100)
20,"Cc1cc(/C=C/C(c2cc(Cl)cc(Cl)c2)C(F)(F)F)ccc1C(=O)NCc1nnc(C2CC2)o1 (centres unmarked) [AC89, (E)-N-((5-Cyclopropyl-1,3,4-oxadiazol-2-yl)methyl)-4-(3-(3,5-dichlorophenyl)-4,4,4-trifluorobut-1-en-1-yl)-2-methylbenzamide]",A (50-100)
21,Cc1cc(/C=C/C(c2cc(Cl)cc(Cl)c2)C(F)(F)F)ccc1C(=O)NCC(=O)N(C)CC(F)(F)F (centres unmarked) [AC51],A (50-100)

row,SMILES,BAW Rating
1,CCc1cc(/C=C/C(c2cc(Cl)c(F)c(Cl)c2)C(F)(F)F)ccc1C(=O)NC1CS(=O)(=O)C1 (centres unmarked) [AC86],A (50-100)
2,O=C(NC1CSC1)c1ccc(/C=C/C(c2cc(Cl)c(Cl)c(Cl)c2)C(F)(F)F)cc1Cl (centres unmarked) [AC29],A (50-100)
3,CCc1cc(/C=C/C(c2cc(Cl)c(F)c(Cl)c2)C(F)(F)F)ccc1C(=O)NCc1ccc(Cl)nc1 (centres unmarked) [AC72],A (50-100)
4,Cc1cc(/C=C/C(c2cc(Cl)cc(Cl)c2)C(F)(F)F)ccc1-n1cncn1 (centres unmarked) [DC62],A (50-100)
5,"CC(=O)NCc1ccc(/C=C/C(c2cc(Cl)cc(Cl)c2)C(F)(F)F)cc1Cl (centres unmarked) [CC7, (E)-N-(2-Chloro-4-(3-(3,5-dichlorophenyl)-4,4,4-trifluorobut-1-en-1-yl)benzyl)acetamide]",A (50-100)
6,Cc1cc(/C=C/C(c2cc(Cl)cc(Cl)c2)C(F)(F)F)ccc1C(=O)NC(C)(C)c1ccccn1 (centres unmarked) [AC16],A (50-100)
7,Fc1ccc(C(/C=C/c2ccc(-n3cncn3)cc2)C(F)(F)F)cc1 (centres unmarked) [DC7],A (50-100)
8,COc1c(Cl)cc(C(/C=C/c2ccc(-n3cncn3)c(C#N)c2)C(F)(F)F)cc1Cl (centres unmarked) [DC34],A (50-100)
9,O=C(NCc1ccc(Cl)nc1)c1ccc(/C=C/C(c2cc(Cl)cc(Cl)c2)C(F)(F)F)cc1F (centres unmarked) [AC49],A (50-100)
10,FC(F)(F)C(/C=C/c1ccc(-n2cncn2)c(Cl)c1)c1cc(Cl)c(Cl)c(Cl)c1 (centres unmarked) [DC49],A (50-100)
11,O=C(NCc1ccc(/C=C/C(c2cc(Cl)c(Cl)c(Cl)c2)C(F)(F)F)cc1Br)C1CC1 (centres unmarked) [CC26],A (50-100)
12,O=C(CC(F)(F)F)NC1CCCc2cc(/C=C/C(c3cc(Cl)c(Cl)c(Cl)c3)C(F)(F)F)ccc21 (centres unmarked) [BC5],A (50-100)
13,O=C(CC(F)(F)F)NCc1ccc(/C=C/C(c2cc(Cl)cc(Cl)c2)C(F)(F)F)cc1 (centres unmarked) [CC3],A (50-100)
14,FC(F)(F)C(/C=C/c1ccc(-n2cncn2)cc1Cl)c1cc(Cl)c(Cl)c(Cl)c1 (centres unmarked) [DC66],A (50-100)
15,FC(F)(F)C(/C=C/c1ccc(-n2cncn2)cc1)c1ccc(Cl)cc1 (centres unmarked) [DC4],A (50-100)
16,Cc1cc(/C=C/C(c2cc(Cl)c(Cl)c(Cl)c2)C(F)(F)F)ccc1C(=O)NCc1cnc(Cl)s1 (centres unmarked) [AC26],A (50-100)
17,O=C(NC1CSC1)c1ccc(/C=C/C(c2cc(Cl)c(Cl)c(Cl)c2)C(F)(F)F)cc1Br (centres unmarked) [AC32],A (50-100)
18,Cc1cc(/C=C/C(c2cc(Cl)c(Cl)c(Cl)c2)C(F)(F)F)ccc1-n1cncn1 (centres unmarked) [DC63],A (50-100)
19,CC(=O)Nc1ncn(-c2ccc(/C=C/C(c3cc(Cl)cc(Cl)c3)C(F)(F)F)cc2C#N)n1 (centres unmarked) [DC39],A (50-100)
20,O=C(NCc1ccc(/C=C/C(c2ccc(Cl)c(Cl)c2)C(F)(F)F)cc1Cl)C1CC1 (centres unmarked) [CC17],A (50-100)
21,O=C(NC1CSC1)c1ccc(/C=C/C(c2cc(Cl)cc(Cl)c2)C(F)(F)F)cc1F (centres unmarked) [AC61],A (50-100)

row,SMILES,BAW Rating
1,O=C(NCc1ccc(Cl)nc1)c1ccc(/C=C/C(c2cc(Cl)c(F)c(Cl)c2)C(F)(F)F)cc1F (centres unmarked) [AC65],A (50-100)
2,O=C(CNC(=O)c1ccc(/C=C/C(c2cc(Cl)c(F)c(Cl)c2)C(F)(F)F)cc1F)NCC(F)(F)F (centres unmarked) [AC68],A (50-100)
3,Cc1cc(/C=C/C(c2cc(Cl)c(Cl)c(Cl)c2)C(F)(F)F)ccc1C(=O)NCc1ccc(Cl)nc1 (centres unmarked) [AC22],A (50-100)
4,Cc1cc(/C=C/C(c2cc(Cl)cc(Cl)c2)C(F)(F)F)ccc1C(=O)NCc1ccccc1F (centres unmarked) [AC9],A (50-100)
5,N#Cc1cc(/C=C/C(c2cc(Cl)cc(C(F)(F)F)c2)C(F)(F)F)ccc1-n1cncn1 (centres unmarked) [DC33],A (50-100)
6,Cc1cc(/C=C/C(c2cc(Cl)cc(Cl)c2)C(F)(F)F)ccc1C(=O)N(C)Cc1ccc(Cl)nc1 (centres unmarked) [AC117],A (50-100)
7,O=C(Cc1ccc(Cl)nc1)NCc1ccc(/C=C/C(c2cc(Cl)c(Cl)c(Cl)c2)C(F)(F)F)cc1Cl (centres unmarked) [CC14],A (50-100)
8,O=C(NCc1ccc(/C=C/C(c2cc(Cl)cc(Cl)c2)C(F)(F)F)cc1C(F)(F)F)C1CC1 (centres unmarked) [CC21],A (50-100)
9,CCc1cc(/C=C/C(c2cc(Cl)c(F)c(Cl)c2)C(F)(F)F)ccc1C(=O)NCC(=O)NCC(F)(F)F (centres unmarked) [AC80],A (50-100)
10,O=C(NC1CS(=O)(=O)C1)c1ccc(/C=C/C(c2cc(Cl)c(Cl)c(Cl)c2)C(F)(F)F)cc1Cl (centres unmarked) [AC30],A (50-100)
11,"N#Cc1cc(/C=C/C(c2cc(Cl)c(Cl)c(Cl)c2)C(F)(F)F)ccc1-n1cnc(NC(=O)C2CC2)n1 (centres unmarked) [DC43, (E)-N-(1-(2-Cyano-4-(4,4,4-trifluoro-3-(3,4,5-trichlorophenyl)but-1-en-1-yl)phenyl)-1H-1,2,4-triazol-3-yl)cyclopropanecarboxamide]",A (50-100)
12,O=C(NCCc1ccc(Cl)nc1)c1ccc(/C=C/C(c2cc(Cl)c(Cl)c(Cl)c2)C(F)(F)F)cc1Br (centres unmarked) [AC113],B (More than 0-Less than 50)
13,O=C(CC(F)(F)F)NCc1ccc(/C=C/C(c2cc(Cl)cc(Cl)c2)C(F)(F)F)cc1Cl (centres unmarked) [CC9],A (50-100)
14,N#Cc1cc(/C=C/C(c2cc(Cl)c(F)c(Cl)c2)C(F)(F)F)ccc1-n1cncn1 (centres unmarked) [DC35],A (50-100)
15,Cc1cc(/C=C/C(c2cc(Cl)c(F)c(Cl)c2)C(F)(F)F)ccc1C(=O)NCC(=O)NCC(F)(F)F (centres unmarked) [AC69],A (50-100)
16,Cc1cc(/C=C/C(c2cc(Cl)cc(Cl)c2)C(F)(F)F)ccc1C(=O)NCc1ccccc1 (centres unmarked) [AC11],A (50-100)
17,Cc1cc(/C=C/C(c2cc(Cl)c(Cl)c(Cl)c2)C(F)(F)F)cc(C#N)c1-n1cncn1 (centres unmarked) [DC45],A (50-100)
18,"O=C(NC1CCN(C(=O)CC(F)(F)F)CC1)c1ccc(/C=C/C(c2cc(Cl)c(Cl)c(Cl)c2)C(F)(F)F)cc1Br (centres unmarked) [AC104, (E)-2-Bromo-4-(4,4,4-trifluoro-3-(3,4,5-trichlorophenyl)but-1-en-1-yl)-N-(1-(3,3,3-trifluoropropanoyl)piperidin-4-yl)benzamide]",A (50-100)
19,"CCNC(=O)NCc1ccc(/C=C/C(c2cc(Cl)cc(Cl)c2)C(F)(F)F)cc1Cl (centres unmarked) [CC31, (E)-1-(2-Chloro-4-(3-(3,5-dichlorophenyl)-4,4,4-trifluorobut-1-en-1-yl)benzyl)-3-ethylurea]",B (More than 0-Less than 50)
20,O=C(NC1CS(=O)(=O)C1)c1ccc(/C=C/C(c2cc(Cl)c(Cl)c(Cl)c2)C(F)(F)F)cc1Br (centres unmarked) [AC33],A (50-100)
